Assay results reported in the supplement of paper PMC10307832.

Key:
Assay in all cases: relative viability (nuclei count vs DMSO), 5 days (fraction); higher = more cells survive
kb NB 142-70 = compound: C1CSC2=C(C(=O)N1)SC3=C2C=C(C=C3)O [kb NB 142-70]
Method in brief: (§1)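 Viability is treated-well nuclei as a fraction of vehicle-well nuclei, reported as the median across plates. Before counting, lung cancer cell lines were kept overnight at 37 °C in 1536-well plates, pinned with five √10-spaced library-drug doses on vehicle-anchored plates, and left 5 days without medium change, then fixed, permeabilised and Hoechst-stained in one step, imaged at 4× and counted by MetaXpress. A plate passed only if control CV was below 25% and at least one doubling occurred.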

[1] = compound: NCC(=O)Nc1ccc(-n2nc(C(F)(F)F)cc2-c2ccc3c(ccc4ccccc43)c2)cc1
Method in brief: as §1

kb NB 142-70 + Alpelisib = compound: C1CSC2=C(C(=O)N1)SC3=C2C=C(C=C3)O [kb NB 142-70] + Cc1nc(NC(=O)N2CCC[C@H]2C(N)=O)sc1-c1ccnc(C(C)(C)C(F)(F)F)c1 [Alpelisib] (partner 2 µM)
Method in brief: (§2)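 Relative viability was taken as the ratio of nuclei in treated wells to nuclei in vehicle wells. Lung cancer cell lines in 1536-well plates received compounds by pin tool one day after seeding, either one drug alone or a fixed anchor-drug dose plus five library-drug doses (not always all listed) in √10 steps. Nuclei were counted on 4× images after 5 days of treatment, and values are medians of duplicate plates.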

[2] = compound: NCC(=O)Nc1ccc(-n2nc(C(F)(F)F)cc2-c2ccc3c(ccc4ccccc43)c2)cc1 + Nc1nc2[nH]cc(CCc3ccc(C(=O)N[C@@H](CCC(=O)O)C(=O)O)cc3)c2c(=O)[nH]1 [Pemetrexed] (partner 0.2 µM)
Method in brief: as §2

Row | Cell Line | relative viability (kb NB 142-70; 0.1 µM) | relative viability (kb NB 142-70; 1 µM) | relative viability (kb NB 142-70; 3.162 µM) | relative viability ([1]; 0.02 µM) | relative viability ([1]; 0.06325 µM) | relative viability ([1]; 0.2 µM) | relative viability ([1]; 0.6325 µM) | relative viability ([1]; 2 µM) | relative viability (kb NB 142-70 + Alpelisib; first compound 0.1 µM) | relative viability (kb NB 142-70 + Alpelisib; first compound 1 µM) | relative viability (kb NB 142-70 + Alpelisib; first compound 3.162 µM) | relative viability ([2]; first compound 0.02 µM) | relative viability ([2]; first compound 0.06325 µM) | relative viability ([2]; first compound 0.2 µM) | relative viability ([2]; first compound 0.6325 µM) | relative viability ([2]; first compound 2 µM)
1 | 201T | 1.01 | 0.966 | 1.02 | 0.892 | 1.01 | 0.98 | 0.989 | 1.01 | 1.01 | 1.02 | 1 | 0.321 | 0.32 | 0.326 | 0.301 | 0.311
2 | A549 | 0.96 | 0.957 | 0.689 | 1.03 | 0.987 | 1.01 | 0.949 | 0.915 | 0.714 | 0.654 | 0.14 |  |  |  |  | 
3 | A-427 | 1.04 | 1 | 0.969 | 0.766 | 1.06 | 0.998 | 0.994 | 1.03 | 1.01 | 1.23 | 1.11 | 1 | 0.975 | 1.02 | 0.974 | 0.957
4 | ABC-1 | 0.984 | 0.985 | 0.494 | 0.914 | 0.926 |  | 0.996 | 0.86 | 1.16 | 0.932 | 0.796 |  |  |  |  | 
5 | BEN | 0.961 | 0.894 | 0.738 | 0.99 | 0.972 | 0.994 | 0.894 | 0.975 | 0.922 | 0.982 | 0.689 | 0.782 | 0.869 | 0.775 | 0.758 | 0.688
6 | CAL-12T | 0.985 | 1.07 | 0.904 | 0.957 | 1.01 | 1.05 | 0.949 | 1.08 | 1.22 | 1.5 | 0.644 | 1.11 | 1.2 | 1.2 | 1.12 | 0.97
7 | COR-L23 | 0.961 | 1.14 | 0.507 | 1.08 | 1.02 | 1.07 | 1 | 0.882 | 0.757 | 0.808 | 0.282 | 0.197 | 0.203 | 0.209 | 0.169 | 0.202
8 | COR-L 105 | 0.86 | 0.88 | 1.02 | 0.843 | 1.02 | 0.916 | 0.891 | 0.94 | 1.11 | 0.989 | 1.03 | 1.19 | 1.21 | 1.09 | 1.23 | 1.01
9 | Calu-6 | 1.04 | 0.996 | 0.614 | 0.962 | 1.05 | 1.03 | 1 | 0.977 | 0.984 | 0.867 | 0.478 |  |  |  |  | 
10 | ChaGo-K-1 | 1.06 | 1.05 | 0.946 | 0.98 | 0.994 | 0.941 | 0.971 | 1.03 |  |  |  | 0.256 | 0.263 | 0.263 | 0.27 | 0.264
11 | EBC-1 | 1.01 | 1 | 0.643 | 1.01 | 1.03 | 1.07 | 1.02 | 1.01 | 0.864 | 0.798 | 0.491 |  |  |  |  | 
12 | EKVX | 0.933 | 0.981 | 0.988 | 1.03 | 1.01 | 0.971 | 0.966 | 1.01 | 0.854 | 0.849 | 0.96 | 0.38 | 0.358 | 0.408 | 0.439 | 0.403
13 | EMC-BAC-2 | 1.08 | 0.972 | 0.632 | 0.918 | 1.01 | 1.05 | 0.931 | 1 | 0.74 | 0.754 | 0.572 | 0.403 | 0.457 | 0.465 | 0.421 | 0.408
14 | IA-LM | 0.818 | 1.05 | 1.06 | 1.01 | 1.03 | 1.02 | 1.08 | 0.996 | 0.795 | 0.759 | 0.756 |  |  |  |  | 
15 | NCI-H522 | 1.04 | 0.784 | 0.635 | 0.886 | 0.978 | 0.922 | 0.96 | 0.925 |  |  |  | 0.968 | 0.973 | 0.874 | 0.86 | 1.07
16 | NCI-H727 | 1.09 | 1.13 | 1.02 | 0.858 | 1.16 | 1.02 | 0.922 | 1.09 | 0.65 | 0.72 | 0.495 |  |  |  |  | 
17 | NCI-H1299 | 0.977 | 1.06 | 1.1 | 0.993 | 0.982 | 1.02 | 0.992 | 1 | 1.02 | 1.11 | 1.17 |  |  |  |  | 
18 | NCI-H1648 | 0.789 | 0.925 | 0.748 | 0.751 | 0.939 | 0.9 | 0.989 | 1.11 |  |  |  | 0.625 | 0.636 | 0.647 | 0.706 | 0.687
19 | NCI-H1650 | 0.988 | 1.02 | 0.849 | 0.913 | 0.995 | 0.847 | 0.971 | 1.09 |  |  |  | 0.399 | 0.423 | 0.331 | 0.485 | 0.38
20 | NCI-H1703 | 0.959 | 0.973 | 1.23 | 1.01 | 0.816 | 0.972 | 0.889 | 0.812 | 0.391 | 0.362 | 0.444 |  |  |  |  | 
21 | NCI-H2342 | 0.897 | 0.972 | 0.912 | 0.93 | 1.01 | 0.988 | 0.986 | 0.911 |  |  |  | 0.796 | 0.757 | 0.764 | 0.762 | 0.812
22 | SW 900 | 0.864 | 1.02 | 0.744 | 0.717 | 0.941 | 0.856 | 0.784 | 0.814 |  |  |  | 0.501 | 0.495 | 0.453 | 0.508 | 0.495
